Test results as given in patent US20230382934A1, “HIGH ENTROPY OXIDES AND METHODS OF SYNTHESIS AND USE THEREOF” (Auburn University, priority 2022, published 2023).

Legend:
[1] = T1-weighted relaxivity, 3 T clinical MRI scanner
From the text: All MRI data were collected at the Auburn University MRI Research Center on a Siemens Verio open-bore 3-T MRI clinical scanner. A 15-channel knee coil was used to simultaneously image 12-15 samples. The imaging procedure was identical to those used for similar studies (Zhang, Q. et al., 2011, Inorg. Chem. 50, 9365; Yu, M. et al., 2014, J. Am. Chem. Soc., 136:12836; Yu, M. et al., 2017, Inorg. Chem., 56:2812; Yu, M. et al., 2012, Inorg. Chem. 51:9153). An inversion recovery (IR) sequence was used that featured a non-selective adiabatic inversion pulse followed by a slice-selective gradient recalled echo (GRE) readout after a delay period corresponding to the inversion time (TI) (Bernstein, M. A. et al., 2004, Handbook of MRI Pulse Sequences; Haacke, E. M. et al., 1999, Magnetic Resonance Imaging: Physical Principles and Sequence Design). The GRE was a saturation readout, such that only one line of k-space was acquired per repetition time (TR), in order to maximize both signal strength and the accuracy of the T1 estimates. […]
Image analysis was performed using custom Matlab programs (Mathworks, Natick, MA). The initial TI=4.8 ms image was used as a baseline to determine circular region of interest (ROI) boundaries for each sample; from these, the mean pixel magnitudes for each ROI were calculated. […]

[2] = cited from earlier work; for increase of relaxivity upon oxidation by excess H2O2: recently reported sensors
[3] = Metal ion exchange with Fe(II) followed by UV/vis; type: physicochemical
Protocol: FIG. 18, comprising FIG. 18A and FIG. 18B, depicts representative spectrophotometric spectra. FIG. 18A depicts spectrophotometric analysis of the reaction between 0.1 mM Fe(ClO4)2 and 0.1 mM 1 in MeCN at 298 K. The UV/vis spectra of the product formed from 0.1 mM Fe(ClO4)2 and 0.1 mM H4qp4 (blue) and that corresponding to 0.1 mM 1 are provided for comparison. FIG. 18B depicts spectrophotometric analysis of the reaction between 0.1 mM Fe(OTf)2 and 0.1 mM 1 in aqueous solutions containing 50 mM HEPES buffered to pH 7.00 at 298 K. The UV/vis spectrum of the product formed from 0.1 mM Fe(OTf)2 and 0.1 mM H4qp4 (blue) and that corresponding to 0.1 mM 1 are provided for comparison.

[4] = cited from earlier work; for pMn: pH 7.4, 1.0 mM Mn(II) and ligand, previously characterized complexes; for log KML of the Mn(II) complex: other reported Mn(II)-binding ligands
[5] = Stability of Fe(III) complexes by potentiometric pH titration (log KML); type: physicochemical; conditions: 25° C.
Protocol: (§1) The aqueous speciation of H4qp4 was previously determined. Those for its Fe(II) and Fe(III) complexes were assessed using a METROHM 765 Dosimat with a jacketed, airtight glass titration vessel. A Fisher Scientific Accumet Research AR15 pH meter was used to monitor the pH of the sample solutions during the titrations. The electrode was calibrated before each titration using commercially available standard solutions buffered to pH 4.0, 7.0, and 10.0. All samples were purged with argon prior to analysis and subsequently analyzed under an argon atmosphere at 25° C. to prevent carbonate contamination. All solution samples were prepared in solutions of 100 mM KCl in deionized Millipore water. The titrations investigating metal-ligand speciation were run with solutions that contained a 1:1 molar mixture of the ligand and FeCl2·(4H2O). Carbonate-free solutions of 0.10 M KOH and 0.10 M HCl were prepared using argon-saturated deionized Millipore water. The titration data were analyzed and fit to speciation models using the Hyperquad2006 program.

[6] = Variable temperature 17O NMR, aquation number and water exchange of Mn(II) complexes; type: physicochemical; conditions: Example 1, Mn(II) complexes, 298 K
Protocol: FIG. 16 depicts plots of r2° as a function of temperature for 1 before and after oxidation by H2O2. Experimental conditions for pre-activated sensor (black squares): [1]=6.0 mM in 60 mM HEPES buffered to pH 7.4 and 10% (v/v) of 10% ^17OH2, B=9.4 T. Experimental conditions for activated sensor (red circles): [1]=2.5 mM in 60 mM MOPS buffered to pH 7.4 with 15 equiv. H2O2 and 10% (v/v) of 10% ^17OH2, B=9.4 T. NMR data acquisition began 15 min after the start of the oxidation reaction.
Aquation numbers (q) were calculated from the maximum ^17O transverse relaxivity, r2max°, and the equation: q=r2max°/510; Gale, Zhu, and Caravan previously used this relationship to estimate the inner-sphere hydration state of Mn(II) in coordination complexes (Gale, E. M. et al., 2013, J. Am. Chem. Soc., 135:18600). Relaxation rates were measured both for aqueous solutions containing Mn(II) complexes and for metal-free solutions buffered to pH 7.4. The linewidths at half-height of the signal were determined by a deconvolution procedure on the real part of the Fourier transformed spectra with a Lorentzian shape function in the data analysis module of Bruker Topspin 1.3® software. The measurements were performed with a commercial 5 mm Bruker broadband probe thermostat with a Bruker B-VT 3000 variable temperature unit. […]

[7] = Example 1, previously reported Mn(II) complex 3; cited from earlier work
[8] = Metal ion exchange with Zn(II) followed by 1H NMR; type: physicochemical; conditions: Example 2, 10 mM Fe(III) complex 3 and 20 mM Zn(ClO4)2, 48 h
Protocol: FIG. 19, comprising FIG. 19A and FIG. 19B, depicts representative NMR data. FIG. 19A depicts a reaction between 20 mM Zn(ClO4)2 and 10 mM 1 in CD3CN. The reaction equilibrated at 295 K for 24 h prior to data acquisition. FIG. 19B depicts the ^1H NMR spectrum of the product of the reaction between 10 mM Zn(ClO4)2 and 10 mM metal-free H4qp4.
FIG. 63, comprising FIG. 63A and FIG. 63B, depicts representative NMR data. FIG. 63A depicts the reaction between 20 mM Zn(ClO4)2 and 10 mM 3 in D20. The reaction equilibrated at 295 K for 48 h prior to data acquisition. FIG. 63B depicts a ^1H NMR spectrum of the product of the reaction between 10 mM Zn(ClO4)2 and 10 mM metal-free H4qp4 in D20.

[9] = Stability of Fe(II) complexes by potentiometric pH titration (log KML); type: physicochemical; conditions: 25° C.
Protocol: as §1

With `O.O.O.O.O.O.[Mn+2]` [[Mn(H2O)6]^2+] the T1-weighted relaxivity ([1]; Example 1, measured independently) was 5.26 mM^−1 s^−.
For `CC#N.O=S(=O)([O-])C(F)(F)F.O=S(=O)([O-])C(F)(F)F.Oc1ccc(O)c(CN(CCN(Cc2ccccn2)Cc2ccccn2)Cc2ccccn2)c1.[Mn+2]` [Complex 2], the “increase of relaxivity upon oxidation by excess H2O2” value [2] is listed as 10%, the “Mn(II) displaced by an equimolar amount of Fe(II)” value ([3]; Example 1, MeCN, by 15 h) is listed as “approximately 10%” and the pMn [4] is listed as 7.25. The “log KML” value [5] was 38.84.
For `O=C(O)CN(CC(=O)O)C1CCCCC1N(CC(=O)O)Cc1ccccn1` (stereo not drawn) [PyC3A^3−], the “log KML of the Mn(II) complex” value [4] is listed as 14.14.
For `Oc1ccc(O)c(CN(CCN(Cc2ccccn2)Cc2cc(O)ccc2O)Cc2ccccn2)c1.[Br-].[Br-].[Mn+2]` [Complex 3], the “increase of relaxivity upon oxidation by excess H2O2” value [2] is listed as 30%.
For `O=S(=O)([O-])C(F)(F)F.O=S(=O)([O-])C(F)(F)F.[Fe+3].[O-]c1ccc(O)cc1CN1CCCNCCN(Cc2cc(O)ccc2O)CCCNCC1` [Complex 3, (1-(2,5-dihydroxybenzyl)-8-(2,5-dihydroxybenzylalkoxide)-1,4,8,11-tetraazacyclotetradecane)iron(III) triflate], the “Mn(II) displaced by an equimolar amount of Fe(II)” value ([3]; Example 1, by 3 h) was 80%, the “rate constant for water exchange (kex)” value [6] was 4.9e+06 s⁻¹ and the r1 ([1]; Example 2, Fe(III) complex 3, 3 T, 50 mM HEPES pH 7.00, 298 K) was 0.87 mM⁻¹ s⁻¹. The pMn [4] was 5.36, the “log KML” value [5] was 33.80 and the “r1 of pre-activated form” value [7] was 5.46 mM^−1 s^−. For the same compound, the “Zn(II) complex with H4qp4 formed” value [8] was “only trace amounts”.
In the case of `NCCN1CCN(CC(=O)O)Cc2cccc(n2)CN(CC(=O)O)CC1` [PC2A-EA^2−], the “log KML of the Mn(II) complex” value [4] is given as 19.01.
For `O=C([O-])CN(CC(=O)[O-])C1CCCCC1N(CC(=O)[O-])Cc1ccccn1.[Fe+2]` (stereo not drawn) [Fe(II)-PyC3A], the “increase in relaxivity on oxidation to Fe(III)” value ([2]; 1.4 T) is given as 10 fold.
For `O=C(O)CN1CCN(CC(=O)O)CCN(CC(=O)O)CCN(CC(=O)O)CC1` [DOTA^4−], the “log KML of the Mn(II) complex” value [4] is listed as 19.89.
For “(1-(2,5-dihydroxybenzyl)-8-(2,5-dihydroxybenzylalkoxide)-1,4,8,11-tetraazacyclotetradecane)iron(II) triflate [Complex 1]”, the “log KML” value [9] was 27.16.
